The record followed here is ChEMBL document CHEMBL1208791, “Optimization of alpha-ketoamide based p38 inhibitors through modifications to the region that binds to the allosteric site” (Bioorg Med Chem Lett, 2010).

For data set [1], the target named is T1, Mitogen-activated protein kinase 14 (Homo sapiens, UniProt Q16539). The data set can be described thus: Inhibition of p38 alpha activity by ELISA.
For data set [2], the target named is T1, Mitogen-activated protein kinase 14. The data set can be described thus: Inhibition of phospho-p38 alpha activity by ELISA. For orientation: An ELISA detects its analyte on a solid surface through an enzyme-linked reagent.
For another data set, the system named is Blood. The data set can be described thus: Ex vivo inhibition of […]-alpha-production in human whole blood. Format: functional, tissue-based.
A short description of data set [3]: Tmax in rat at 10 mg/kg, iv or 30 mg/kg, po. To be noted: in vivo. Format: ADME, organism-based.
A short description of data set [4]: Half life in rat at 10 mg/kg, iv or 30 mg/kg, po. The class given is ADME, organism-based. To be noted: in vivo.
A short description of data set [5]: Clearance in rat at 10 mg/kg, iv or 30 mg/kg, po. To be noted: in vivo. Format: ADME, organism-based.
Data set [6] is described as follows: Cmax in rat at 10 mg/kg, iv or 30 mg/kg, po. The class given is ADME, organism-based. The settings on record: in vivo.
The nature of data set [7]: AUC in rat at 10 mg/kg, iv or 30 mg/kg, po. Format: ADME, organism-based. The settings on record: plasma.
Data set [8] in a line: Oral bioavailability in rat at 30 mg/kg, po. The settings on record: in vivo. The class given is ADME, organism-based.
Data set [9] is described as follows: Volume of distribution at steady state in rat at 10 mg/kg, iv or 30 mg/kg, po. Format: ADME, organism-based. To be noted: in vivo, read-out: Vdss.
Another data set has as its system THP-1. The data set can be described thus: Inhibition of LPS-induced […]-alpha-production in immortalized human THP1 cells. Format: functional, cell-based.

T1 sequence (Q16539 whole entry): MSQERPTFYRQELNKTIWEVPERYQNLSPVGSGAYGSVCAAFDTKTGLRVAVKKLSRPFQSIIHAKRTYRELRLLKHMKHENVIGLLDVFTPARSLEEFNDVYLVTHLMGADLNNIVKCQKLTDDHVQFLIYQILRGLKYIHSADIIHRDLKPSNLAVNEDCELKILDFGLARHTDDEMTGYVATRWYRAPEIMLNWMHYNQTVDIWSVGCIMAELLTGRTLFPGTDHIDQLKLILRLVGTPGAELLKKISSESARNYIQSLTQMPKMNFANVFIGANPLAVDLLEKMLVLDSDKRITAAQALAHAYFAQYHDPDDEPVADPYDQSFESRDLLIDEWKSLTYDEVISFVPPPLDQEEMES

A word on the IC50: it is the concentration that inhibits the measured activity by half. A high value points to a need for much substance. As to `COc1c(NC(=O)C(=O)c2ccc(Oc3ccnc(N4CCOCC4)n3)c3ccccc23)cc(C(C)(C)C)cc1NS(C)(=O)=O`, the IC50 in data set [1] worked out at 38 nM; in [2], 13 nM.
Take `COc1c(C#N)cc(C(C)(C)C)cc1NC(=O)C(=O)c1ccc(Nc2ccncc2)c2ccccc12`: the IC50 in [1] turned out to be 51 nM; in the data set with Blood it was 150 nM.
The molecule `COc1c(NC(=O)C(O)c2ccc(OCCN3CCOCC3)c3ccccc23)cc(C(C)(C)C)cc1NS(C)(=O)=O` (centres undefined) yielded an IC50 in data set [1] of 390 nM.
On the same count and under the same terms, for `N#Cc1cc(NC(=O)C(=O)c2ccc(OCCN3CCOCC3)c3ccccc23)cc(N2CCOCC2)c1` the value was 28 nM.
Same read-out and setting: the figure for `CC(C)(C)c1cc(C#N)cc(NC(=O)C(=O)c2ccc(OCCN3CCOCC3)c3ccccc23)c1` is 33 nM.
For the molecule `CC(C)(C)c1cccc(NC(=O)C(=O)c2ccc(OCCN3CCOCC3)c3ccccc23)c1`, the IC50 came to 250 nM in data set [1] and 310 nM in data set [2].
What is called Tmax is the time at which the peak concentration occurs. Broadly, the half-life is the time needed for the level to fall by half in the phase considered. Broadly, the Cmax is the maximum level reached in the sampled fluid or tissue. A word on the AUC: it is concentration integrated over time. High values mean high exposure, low ones low exposure. One may read the bioavailability as dose-corrected exposure relative to a reference, in per cent. Higher therefore signals much systemic uptake. In the case of `COc1c(C#N)cc(C(C)(C)C)cc1NC(=O)C(=O)c1ccc(OCCN2CCOCC2)c2ccccc12`, the Tmax in data set [3] came out at 0.5 h. The same molecule had a half-life in data set [4] of 9.8 h. Besides, it took 42 nM to reach half-maximal inhibition in [1] (IC50). This molecule gave a clearance in data set [5] of 18.3 mL/min/kg. Moreover, the highest level in data set [6] (Cmax) was 2400 ng/mL. Besides, the AUC in [7] was 15000 ng·h/mL. For the same molecule, the bioavailability in data set [8] was 57%. Further, the Vd in data set [9] came to 4.9 L/kg.
Take `COc1c(NC(=O)/C(=N/O)c2ccc(OCCN3CCOCC3)c3ccccc23)cc(C(C)(C)C)cc1NS(C)(=O)=O`: in [1], 200 nM corresponded to half-maximal inhibition (IC50).
Still for that read-out and setting: for `COc1c(C#N)cc(C(C)(C)C)cc1NC(=O)C(=O)c1ccc(-c2ccncc2)c2ccccc12` the value was 60 nM.
`COc1c(NC(=O)C(=O)c2ccc(Nc3ccncc3)c3ccccc23)cc(C(C)(C)C)cc1NS(C)(=O)=O`: the IC50 in [1] was found to be 25 nM; in data set [2] it was 2 nM.
In turn, `COc1c(C#N)cc(C(C)(C)C)cc1NC(=O)C(=O)c1ccc(-c2cccnc2)c2ccccc12` had an IC50 in data set [1] of 78 nM.
For the molecule `CNc1nccc(Nc2ccc(C(=O)C(=O)Nc3cc(C(C)(C)C)cc(NS(C)(=O)=O)c3OC)c3ccccc23)n1`, the IC50 came out at 8 nM in the data set on THP-1, 100 nM in the data set on Blood and 21 nM in data set [2].
With `COc1c(NC(=O)C(=O)c2ccc(OCCN3CCOCC3)c3ccccc23)cc(C(C)(C)C)cc1NS(C)(=O)=O` [ITX-5061 FREE BASE], the Tmax in data set [3] amounted to 3 h. Also, the half-life in [4] is 3.5 h. For the same molecule, the results for the 50% inhibitory concentration (IC50) in [1] and in data set [2] were 59 nM and 38 nM, respectively. Also, the clearance in data set [5] was 26.7 mL/min/kg. The same molecule gave a Cmax in data set [6] of 1300 ng/mL. Moreover, the AUC in [7] worked out at 14000 ng·h/mL. Also, the bioavailability in [8] came to 77%. For the same molecule, the Vd in [9] was 5.2 L/kg.
On to `COc1c(Cl)cc(C(C)(C)C)cc1NC(=O)C(=O)c1ccc(OCCN2CCOCC2)c2ccccc12`, for which inhibition in data set [1] was half-maximal at 70 nM (IC50).
As for `COc1c(NC(=O)Cc2ccc(OCCN3CCOCC3)c3ccccc23)cc(C(C)(C)C)cc1NS(C)(=O)=O`, the IC50 is 190 nM in data set [1] and 90 nM in data set [2].
Regarding `COc1c(NC(=O)C(=O)c2ccc(Nc3ccncn3)c3ccccc23)cc(C(C)(C)C)cc1NS(C)(=O)=O`, the IC50 in data set [1] is 72 nM; in data set [2], 1 nM.
The molecule `COc1ccc(C(C)(C)C)cc1NC(=O)C(=O)c1ccc(OCCN2CCOCC2)c2ccccc12` came in with an IC50 in [1] of 250 nM.
Regarding `COc1c(NC(=O)C(=O)c2ccc(OCCN3CCOCC3)c3ccccc23)cc(C(C)(C)C)cc1C(=O)NC1CC1`, the IC50 was determined as 71 nM in data set [1] and 140 nM in data set [2].
Consider `COc1c(C#N)cc(C(C)(C)C)cc1NC(=O)C(=O)c1ccc(-c2ccc(F)nc2)c2ccccc12`, for which it took 190 nM to reach half-maximal inhibition in data set [1] (IC50). In other words, the sub-micromolar range.
Still for that read-out and setting: for `COc1c(C#N)cc(C(C)(C)C)cc1NC(=O)C(=O)c1ccc(-c2ccnc(C)c2)c2ccccc12` the value was 22 nM.
